Here are results for one compound from ChEMBL document CHEMBL6092168, “Identification of novel indolinone derivatives as CTSC inhibitors to treat inflammatory bowel disease by modulating inflammatory factors” (Eur J Med Chem, 2024).

One data set concerns RAW264.7. Briefly: Anti-inflammatory activity in LPS-stimulated mouse RAW264.7 cells assessed as reduction in GM-CSF production incubated for 24 hrs by ELISA. The format is functional, cell-based. The settings on record: dose 0.62-5 µM. (In general: In an ELISA, binding on a coated surface is turned into a signal by an enzyme label.)
The nature of data set [1]: Acute toxicity in ICR mouse assessed as body weight loss at 1500 mg/kg, po administered daily for 7 days. It counts as organism-based. The settings on record: in vivo, 168 h, time 7 day.
Data set [2] concerns Mus musculus. The data set is described as follows: Anti-inflammatory activity in DSS-induced ulcerative colitis male C57BL/6 mouse model assessed as reduction in inflammatory epithelial destruction in colon at 60 mg/kg administered via gavage for 10 days by H and E staining based analysis. It counts as functional, organism-based. The settings on record: time 10.0 day.
The subject of data set [3] is Mus musculus. The data set is described as follows: Anti-inflammatory activity in DSS-induced ulcerative colitis male C57BL/6 mouse model assessed as reduction in proteinase 3 level in serum at 60 mg/kg administered via gavage for 10 days relative to control. The format is functional. Details: scale not given: the % may be the effect or the level left.
Data set [4] has as its target T1, Myeloblastin (Mus musculus) (UniProt Q61096).
T1 sequence (whole entry): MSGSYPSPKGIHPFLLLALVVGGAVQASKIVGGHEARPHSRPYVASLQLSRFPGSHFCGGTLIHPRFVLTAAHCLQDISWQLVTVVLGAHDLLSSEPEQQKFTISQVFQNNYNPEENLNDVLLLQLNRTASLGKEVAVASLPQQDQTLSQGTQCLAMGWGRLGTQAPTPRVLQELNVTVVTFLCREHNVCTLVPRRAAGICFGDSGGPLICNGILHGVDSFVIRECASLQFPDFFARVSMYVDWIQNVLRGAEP
The data set is described as follows: In vivo inhibition of proteinase 3 in C57BL/6 mouse assessed as reduction in proteinase 3 activity in blood at 30 mg/kg, po administered once daily for 6 days by fluorescence based microplate reader relative to control. It counts as functional, organism-based. The settings on record: time 6.0 day.

Data set [5] addresses T2, Cathepsin G (Mus musculus) (UniProt P28293).
T2 sequence (whole entry): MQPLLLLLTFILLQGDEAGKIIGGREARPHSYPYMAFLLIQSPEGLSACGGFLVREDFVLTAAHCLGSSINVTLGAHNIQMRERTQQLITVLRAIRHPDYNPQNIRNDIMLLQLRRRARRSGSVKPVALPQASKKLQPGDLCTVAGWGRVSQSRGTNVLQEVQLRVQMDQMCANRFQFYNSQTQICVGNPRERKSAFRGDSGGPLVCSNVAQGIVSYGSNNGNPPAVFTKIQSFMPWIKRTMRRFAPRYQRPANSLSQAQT
Briefly: In vivo inhibition of Cathepsin G in C57BL/6 mouse assessed as reduction in cathepsin G activity in bone marrow administered orally once daily for 6 days by fluorescence based microplate reader. The format is functional, organism-based. The settings on record: dose 5-30 mg/kg, route po, time 6.0 day.

The target of data set [6] is T2, Cathepsin G (Mus musculus). Briefly: Induction of Cathepsin G degradation in C57BL/6 mouse bone marrow cells at 10 uM incubated for 24 hrs by Western blot analysis. The format is cell-based. The settings on record: Bone marrow cell.
Data set [7] can be described thus: MRT in male Sprague-Dawley rat at 2 mg/kg, iv measured at 5 to 1440 mins by LC-MS/MS analysis. The settings on record: in vivo, time 5-1440 min. It counts as ADME, organism-based.
The subject of data set [8] is Mus musculus. The data set is described as follows: Anti-inflammatory activity in DSS-induced ulcerative colitis male C57BL/6 mouse model assessed as increase in colon length at 60 mg/kg administered via gavage for 10 days. The format is functional, organism-based. The settings on record: time 10.0 day.
A further data set deals with Dipeptidyl peptidase 1 (Homo sapiens, UniProt P53634). Briefly: Inhibition of Cathepsin C in human U-937 cells using H-Gly-Arg-AMC as substrate at 10 uM incubated for 5 days by fluorescence based microplate reader analysis relative to control. It counts as cell-based. The settings on record: time 5.0 day.
The nature of data set [9]: Acute toxicity in ICR mouse assessed as heart pathological change at 1500 mg/kg, po administered daily for 7 days by H and E staining based analysis. The settings on record: in vivo, 168 h, time 7 day. The format is organism-based.
For data set [10], the system named is Mus musculus. The data set is described as follows: Anti-inflammatory activity in DSS-induced ulcerative colitis male C57BL/6 mouse model assessed as reduction in crypt loss in colon at 60 mg/kg administered via gavage for 10 days by H and E staining based analysis. It counts as functional, organism-based. Conditions: time 10.0 day.
In data set [11] the target is T3, Dipeptidyl peptidase 1 (Mus musculus) (UniProt P97821).
T3 sequence (whole entry): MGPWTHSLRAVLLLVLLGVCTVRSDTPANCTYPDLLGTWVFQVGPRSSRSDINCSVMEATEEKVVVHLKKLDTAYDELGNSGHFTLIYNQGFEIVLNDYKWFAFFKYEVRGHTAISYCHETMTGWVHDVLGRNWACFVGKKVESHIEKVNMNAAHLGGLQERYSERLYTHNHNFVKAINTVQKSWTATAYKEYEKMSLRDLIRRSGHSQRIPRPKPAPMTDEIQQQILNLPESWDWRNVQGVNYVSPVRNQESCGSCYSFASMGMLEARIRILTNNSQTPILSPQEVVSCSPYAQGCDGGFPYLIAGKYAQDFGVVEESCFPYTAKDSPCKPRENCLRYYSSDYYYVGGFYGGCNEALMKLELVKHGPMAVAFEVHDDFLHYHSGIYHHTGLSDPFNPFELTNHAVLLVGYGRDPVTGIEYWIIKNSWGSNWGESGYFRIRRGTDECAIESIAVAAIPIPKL
The data set is described as follows: In vivo inhibition of Cathepsin C in C57BL/6 mouse assessed as reduction in cathepsin C activity in bone marrow administered orally once daily for 6 days by fluorescence based microplate reader. The format is functional, organism-based. Conditions: dose 5-30 mg/kg, route po, time 6.0 day.

The target in data set [12] is T4, Neutrophil elastase (Mus musculus) (UniProt Q3UP87).
T4 sequence (whole entry): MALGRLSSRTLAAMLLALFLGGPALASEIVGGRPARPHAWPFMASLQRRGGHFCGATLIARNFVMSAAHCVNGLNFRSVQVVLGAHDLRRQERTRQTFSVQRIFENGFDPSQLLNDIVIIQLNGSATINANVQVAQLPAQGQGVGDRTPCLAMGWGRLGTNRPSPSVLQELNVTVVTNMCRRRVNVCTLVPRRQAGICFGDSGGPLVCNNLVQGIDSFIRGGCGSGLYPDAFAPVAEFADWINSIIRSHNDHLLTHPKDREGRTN
The data set is described as follows: Induction of neutrophil elastase degradation in C57BL/6 mouse bone marrow cells at 10 uM incubated for 24 hrs by Western blot analysis. It counts as cell-based. Conditions: Bone marrow cell. In general terms: A western blot detects proteins with antibodies after separation by electrophoresis.

A short description of data set [13]: AUC (0 to infinity) in male Sprague-Dawley rat at 2 mg/kg, iv measured at 5 to 1440 mins by LC-MS/MS analysis. The settings on record: in vivo, time 5-1440 min. It counts as ADME, organism-based.
The target of data set [14] is T4, Neutrophil elastase (Mus musculus). Briefly: In vivo inhibition of neutrophil elastase in C57BL/6 mouse assessed as reduction in neutrophil elastase activity in bone marrow at 30 mg/kg, po administered once daily for 6 days by fluorescence based microplate reader relative to control. The format is functional, organism-based. The settings on record: time 6.0 day.

The subject of data set [15] is Mus musculus. The data set is described as follows: Anti-inflammatory activity in DSS-induced ulcerative colitis male C57BL/6 mouse model assessed as reduction in GM-CSF expression in serum administered via gavage for 10 days by ELISA. The format is functional, organism-based. The settings on record: dose 15-60 mg/kg, time 10.0 day.
The target of data set [16] is T3, Dipeptidyl peptidase 1 (Mus musculus). The data set is described as follows: In vivo inhibition of Cathepsin C in C57BL/6 mouse assessed as reduction in cathepsin C activity in blood at 30 mg/kg, po administered once daily for 6 days by fluorescence based microplate reader relative to control. The settings on record: time 6.0 day. The format is functional, organism-based.

The nature of data set [17]: Apparent permeability in human Caco-2 cells incubated for 90 min by LC-MS/MS analysis. It counts as ADME, cell-based.
Data set [18] is described as follows: Acute toxicity in ICR mouse assessed as liver pathological change at 1500 mg/kg, po administered daily for 7 days by H and E staining based analysis. The format is organism-based. The settings on record: in vivo, 168 h, time 7 day.

Activity calls are given as the source filed them. The rule behind the calls is not given here.

Sequence of Dipeptidyl peptidase 1 (P53634 25-134 limits assumed): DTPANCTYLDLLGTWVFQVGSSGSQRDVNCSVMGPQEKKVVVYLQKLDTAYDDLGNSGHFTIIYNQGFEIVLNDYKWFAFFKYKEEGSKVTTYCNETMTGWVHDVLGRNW
Sequence of Dipeptidyl peptidase 1 (P53634 231-394 limits assumed): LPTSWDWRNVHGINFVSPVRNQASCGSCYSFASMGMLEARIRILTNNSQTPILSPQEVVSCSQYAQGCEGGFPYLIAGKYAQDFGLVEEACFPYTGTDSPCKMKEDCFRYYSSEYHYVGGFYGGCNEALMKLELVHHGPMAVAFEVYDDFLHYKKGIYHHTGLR
Sequence of Dipeptidyl peptidase 1 (P53634 395-463 limits assumed): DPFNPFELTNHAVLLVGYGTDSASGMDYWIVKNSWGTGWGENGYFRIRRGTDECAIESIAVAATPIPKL

Turning to `O=C1Nc2c(cccc2-c2ccc(NC3CCOCC3)cc2)/C1=C/c1ccnc2ccccc12`, the Activity entry is “Dose-dependent-effect” in the data set with RAW264.7; “Non-toxic” in data set [1]; 54% in the data set with Mus musculus [3] (time 10 day); “Active; Significantly More Effective Than In Mesalazine Treatment Group” with Mus musculus [8]; “Non-toxic” in [9]; “Dose-dependent-effect; Significant Reduction Observed In High Dose Group” in the data set on Mus musculus [15]. Besides, the Activity entry in data set [18] is given as “Non-toxic”. Besides, the outcome (in the data set on Mus musculus [2]; in the data set with Mus musculus [3] (time 10.0 day); in [6]; with Mus musculus [10]; in data set [12]) was Active. Moreover, the inhibition in data set [4] is 44.8%; in data set [5], “Dose-dependent-effect”; against Dipeptidyl peptidase 1, 14.9%; in [11], “Dose-dependent-effect”; in [14], 59.1%; in data set [16], 27.2%. In [7], this compound gave a mean residence time MRT of 10.48 h. Moreover, in data set [13], the AUC amounted to 915.64 ng·h/mL. The Papp at 1.5 h in data set [17] was 3.2 ×10⁻⁶ cm/s.

For orientation: inhibition means how much of the control response was suppressed. By MRT is commonly meant a mean duration of stay, worked out from the concentration-time curve. By AUC is commonly meant the area under the concentration-time curve, a measure of exposure. The Papp is the rate of passage across a membrane or cell layer, normalised by area and donor concentration.
